{"source": "patent US11773188B2", "about": "“Chitosan-derived compositions” (Immunophotonics, Inc, priority 2012, dated 2023)", "key": {"[1]": {"tested_on": "Line 1 lung adenocarcinoma", "settings": "no GC, 8 mice", "source_text": "To evaluate photodynamic therapy as a the method for direct tumor destruction in combination with glycated chitosan, a combination of photofrin- and meso-substituted tetra (meta-hydroxy-phenyl) chlorin-(mTHPC) based photodynamic therapy and glycated chitosan injection was been studied in the EMT6 mammary sarcoma and Line 1 lung adenocarcinoma mouse models, respectively. In each model, BALB/c mice were subcutaneously inoculated with 10^6 viable tumor cells into the lower dorsal area. Tumors were treatment size (7 to 8 mm) after 7 days.\nA 0.1 mg/kg dose of mTHPC was intravenously administered 24 h prior to irradiation. Animals were shielded from direct light immediately after the photosensitizer injection until 3 days after photodynamic treatment. Mice were restrained anaesthetized in holders exposing their backs during light treatment. A 652 nm light from a 0.25 W diode laser was delivered through an 8 mm diameter liquid light guide. The power density was set at 110 mW/cm^2, fora total light dose of 30 J/cm^2."}, "EMT6 mammary sarcoma": {"tested_on": "EMT6 mammary sarcoma", "assay": "Photofrin-based photodynamic therapy and glycated chitosan in EMT6 model", "type": "in vivo, BALB/c mice", "settings": "8 mice", "procedure": "In each model, BALB/c mice were subcutaneously inoculated with 10^6 viable tumor cells into the lower dorsal area. Tumors were treatment size (7 to 8 mm) after 7 days.\nIn the EMT6 mammary sarcoma model, treatment groups evaluated are detailed in the table below. Photofrin (Mont-Saint-Hilaire, Quebec, Canada) was prepared in 5% sterile dextrose to a 1 mg/mL concentration. A 5 mg/kg dose of photofrin was intravenously administered 24 h prior to irradiation. Animals were shielded from direct light immediately after the photosensitizer injection until 3 days after photodynamic treatment. Mice were restrained anaesthetized in holders exposing their backs during light treatment. Light (630 nm) was delivered through an 8 mm diameter liquid light guide. The power density was set at 100 mW/cm^2, for a total light dose of 60 J/cm^2. Immediately after light irradiation, if applicable, animals were administered a peritumoral dose of 0.5 or 1.5% glycated chitosan."}, "breast cancer": {"tested_on": "breast cancer", "protocol": "In one exemplary clinical study, two breast cancer patients received cyclophosphamide weekly (after inCVAX treatment) at a dose of between 150 and 200 mg/m^2. […] The patients continued to receive the low dose chemotherapy."}, "[2]": {"tested_on": "DMBA-4 transplantable, metastatic mammary tumor", "assay": "Different components of laser-assisted immunotherapy in metastatic breast tumor-bearing rats", "type": "in vivo, Wistar Furth rats", "settings": "0.25% ICG injection only, 0.2 mL intratumoral; 12 rats; all rats dying", "procedure": "The laser-assisted immunotherapy system consisted of a near-infrared laser diode laser with a maximum output of 25 W; the laser-absorbing dye, indocyanine green; and the immunoadjuvant, glycated chitosan. When the primary tumor was 0.2 to 0.5 cm^3, treatment was initiated in the tumor-bearing rats. A solution of 0.2 mL of GC and/or ICG was injected into the center of the primary tumor in all groups. In rats receiving laser treatment, the injections occurred 2 h before irradiation, with animals anesthetized and the hair overlaying the tumor clipped. The laser settings were 2 W and 10 min, with the laser fiber tip maintained a distance of 4 mm from the overlying skin and the laser energy directed to the treatment sites through optical fibers. The animals were individually housed following treatment. In the survival studies, the breast or prostate tumor-bearing rats were observed daily and the three dimensions of each tumor were measured weekly. Female Wistar Furth rats (5 to 6 weeks of age, 100 to 125 g) were subcutaneously inoculated with the DMBA-4 transplantable, metastatic mammary tumor (10^5 viable tumor cells) into one inguinal fat pad of each rat. The primary tumor emerged 7 to 10 days after inoculation. […] The survival rate and primary and metastatic tumor profiles were determined for the individual components and various combinations of the components."}, "[3]": {"settings": "weekly 150-200 mg/m^2 after inCVAX treatment, two breast cancer patients"}}, "note": "Where two headings read alike, the source gives them in different places."}
{"molecule": "Oc1cccc(-c2c3nc(c(-c4cccc(O)c4)c4ccc([nH]4)c(-c4cccc(O)c4)c4nc(c(-c5cccc(O)c5)c5ccc2[nH]5)CC4)C=C3)c1", "note": "[mTHPC, meso-substituted tetra (meta-hydroxy-phenyl) chlorin]", "values": [{"measurement": "Number of Long-Term Surviving Mice", "setting": "[1]; Laser (652 nm, 30 J/cm^2) + mTHPC 0.1 mg/kg i.v. 24 h before", "value": 0}, {"measurement": "Long-term Survival Rate", "setting": "[1]; Laser + mTHPC 0.1 mg/kg i.v.", "value": 0.0, "unit": "%"}]}
{"molecule": "Photofrin", "values": [{"measurement": "Number of Long-Term Surviving Mice", "setting": "EMT6 mammary sarcoma; Non-Thermal Laser + Photofrin 5 mg/kg i.v. 24 h before 630 nm light 60 J/cm^2", "value": 3}, {"measurement": "Long-term Survival Rate", "setting": "EMT6 mammary sarcoma; Non-Thermal Laser + Photofrin 5 mg/kg i.v., no GC", "value": 37.5, "unit": "%"}]}
{"molecule": "CC(=O)O[C@H]1C(=O)[C@@]2(C)[C@H]([C@H](OC(=O)c3ccccc3)[C@]3(O)C[C@H](OC(=O)[C@H](O)[C@@H](NC(=O)c4ccccc4)c4ccccc4)C(C)=C1C3(C)C)[C@]1(OC(C)=O)CO[C@@H]1C[C@@H]2O", "note": "[Paclitaxel]", "values": [{"measurement": "tumor response", "setting": "breast cancer; weekly 75 mg/m^2 after response to cyclophosphamide slowed", "value": "the response was very good with shrinking tumors"}]}
{"molecule": "CC1(C)C(/C=C/C=C/C=C/C=C2\\N(CCCCS(=O)(=O)O)c3ccc4ccccc4c3C2(C)C)=[N+](CCCCS(=O)(=O)[O-])c2ccc3ccccc3c21", "note": "[indocyanine green]", "values": [{"measurement": "survival after single component treatment", "setting": "[2]", "value": "average survival times similar to the control group"}]}
{"molecule": "O=P1(N(CCCl)CCCl)NCCCO1", "note": "(centres unmarked) [cyclophosphamide]", "values": [{"measurement": "adverse reactions", "setting": "breast cancer; [3]", "value": "minimal adverse reactions"}, {"measurement": "tumor response", "setting": "breast cancer; [3]", "value": "responded well to the treatment with tumor shrinkage"}]}
